Measured values from patent US20070197523A1, “CALCIUM CHANNEL ANTAGONISTS” (ICAGEN, INC., priority 2005, published 2007).
pIC50: −log10 of the molar value.

test system: T-type calcium channels; experiment: T-type calcium channel inhibitory activity (fluorometric FLIPR Fluo-4 and whole cell patch clamp); type: cell-based, mammalian; details: inhibition of T-type calcium channels; cells natively expressing or HEK-293 cells expressing recombinant channels
Procedure: T-type calcium channel inhibitory activity of some compounds of the invention was evaluated using both fluorometric as well as electrophysiological measurement methodologies, which are known to those skilled in the art. Fluorescence measurement of changes in intracellular calcium due to entry of calcium through T-type calcium channels was assessed using calcium sensitive fluorescent dyes Fluo-4 and Fluo-3. In brief, cells natively expressing T-type channels or HEK-293 cells transiently or stably expressing recombinant mammalian T-type calcium channels grown in 96-well tissue culture plates in DMEM/High glucose, Hyclone, Fetal Bovine Serum (10%), and 2 mM sodium pyruvate 2 mM (and for cells lines recombinantly expressing T-type calcium channels, G418 @ 400 mg/liter) were loaded with 4 μM Fluo-4 made up in Earls Balanced Salt Solution (EBSS). After incubation for 30 minutes at room temperature, cells were washed with low calcium (0.5 mM) EBSS to remove extracellular Fluo-4. Baseline fluorescence was measured in a FLIPR (FLuorescence Image Plate Reader) (Molecular Devices Inc) after applying test compounds at desired concentration for 5-10 minutes. The effect of test compound on calcium entry was assessed by monitoring changes in Fluo-4 fluorescence following an elevation of extracellular calcium concentration from 0.5 mM to 5 mM. […] Native cells natively expressing T-type channels or HEK-293 cells transiently or stably expressing recombinant mammalian T-type calcium channels were grown in DMEM/High glucose, Hyclone, Fetal Bovine Serum (10%), 2 mM sodium pyruvate 2 mM (and for cells lines recombinantly expressing T-type calcium channels, G418 @ 400 mg/liter) on glass coverslips in 35 mm tissue culture dishes. Experiments were performed by placing T-type calcium channels expressing cells in a recording chamber perfused with EBSS (which contains (in mM): 132 NaCl, 5.4 KCl, 1.8 CaCl2, 0.8 MgCl2, 10 Hepes, 5 glucose, pH 7.4 with NaOH) on the stage of an inverted microscope. Electrical currents were measured using the whole cell configuration of the patch clamp technique (Axopatch 200B, Axon Instruments (Molecular Devices) (see Hamill et al (1981) Pflugers Arch. 1981 391:85-100) using 2-2.5 MOhm resistance glass pipettes filled with 135 CsF, 5 CsCl, 5 NaCl, 5 EGTA, 10 HEPES, pH 7.3 with CsOH, Osmolarity ˜288 mOsm. Test compound effects were typically assessed under conditions in which approximately half of the available channels were inactivated either by an 8 second conditioning depolarization from a holding potential of −100 mV to a potential ranging from −70 mV to −60 mV or by continually holding the membrane potential at −70 mV. Test compounds were assessed for their ability to reduce the amplitude of the inward T-type calcium current elicited by a 100 ms step depolarization −20 or −30 mV.

Compared with CCOc1cccc(S(=O)(=O)c2cnc(NC(=O)Cc3ccc(OC)c(OC)c3)s2)c1 [Example 1, 2-(3,4-Dimethoxy-phenyl)-N-[5-(3-ethoxy-benzenesulfonyl)-thiazol-2-yl]-acetamide], CCOc1cccc(S(=O)(=O)c2cnc(Nc3cc(N(C)CCOC)ncn3)s2)c1 [Example 5, N-[5-(3-Ethoxy-benzenesulfonyl)-thiazol-2-yl]-N′-(2-methoxy-ethyl)-N′-methyl-pyrimidine-4,6-diamine] is lower in pIC50: 6.00 to 9.00 for the first, 5.00 to 6.00 for the second.

CCOc1cccc(S(=O)(=O)c2cnc(Nc3cc(NCCN4CCCC4)ncn3)s2)c1 [Example 2, N-(2-Pyrrolidin-1-ethyl)-N′-[5-(3-ethoxy-benzenesulfonyl)-thiazol-2-yl]-pyrimidine-4,6-diamine] and CCOc1cccc(S(=O)(=O)c2cnc(Nc3cc(NCCN4CCCC4)nc(C)n3)s2)c1 [Example 9, N-[5-(3-ethoxy-benzenesulfonyl)-thiazol-2-yl]-2-methyl-N′-(2-pyrrolidin-1-yl-ethyl)-pyrimidine-4,6-diamine] fall in the same range of pIC50: 6.00 to 9.00 for the first, 6.00 to 9.00 for the second.

First: CCOc1cccc(S(=O)(=O)c2cnc(Nc3cc(NCCN(C)C)ncn3)s2)c1 [Example 3, N-(2-Dimethylamino-ethyl)-N′-[5-(3-ethoxy-benzenesulfonyl)-thiazol-2-yl]-pyrimidine-4,6-diamine]
Second: CCOc1cccc(S(=O)(=O)c2cnc(Nc3cc(NCCOC)ncn3)s2)c1 [Example 4, N-[5-(3-Ethoxy-benzenesulfonyl)-thiazol-2-yl]-N′-(2-methoxy-ethyl)-pyrimidine-4,6-diamine]
The pIC50 of the first is higher: 6.00 to 9.00 for the first, 5.00 to 6.00 for the second. The first is the more potent here.

CCOc1cccc(S(=O)(=O)c2cnc(Nc3cc(NCC(C)(C)N)nc(C)n3)s2)c1 [Example 6, N-(2-Amino-2-methyl-propyl)-N′-[5-(3-ethoxy-benzenesulfonyl)-thiazol-2-yl]-2-methyl-pyrimidine-4,6-diamine] and CCOc1cccc(S(=O)(=O)c2cnc(Nc3cc(NCCN(C)C)nc(C)n3)s2)c1 [Example 8, N-(2-Dimethylamino-ethyl)-N′-[5-(3-ethoxy-benzenesulfonyl)-thiazol-2-yl]-2-methyl-pyrimidine-4,6-diamine] fall in the same range of pIC50: 6.00 to 9.00 for the first, 6.00 to 9.00 for the second.

First: CCOc1cccc(S(=O)(=O)c2cnc(Nc3cc(NCCOC)nc(C)n3)s2)c1 [Example 7, N-[5-(3-ethoxy-benzenesulfonyl)-thiazol-2-yl]-N′-(2-methoxy-ethyl)-2-methyl-pyrimidine-4,6-diamine]
Second: CCOc1cccc(S(=O)(=O)c2cnc(Nc3cc(NCC[C@H]4CCNC4)nc(C)n3)s2)c1 [Example 10, N-[5-(3-ethoxy-benzenesulfonyl)-thiazol-2-yl]-2-methyl-N′-(R)-(pyrrolidin-3-yl-ethyl)-pyrimidine-4,6-diamine]
The pIC50 of the first is lower: 5.00 to 6.00 for the first, 6.00 to 9.00 for the second.

CCOc1cccc(S(=O)(=O)c2cnc(Nc3cc(NCC4(N)CCCCC4)nc(C)n3)s2)c1 [Example 11, N-(1-Amino-cyclohexylmethyl)-N′-[5-(3-ethoxy-benzenesulfonyl)-thiazol-2-yl]-2-methyl-pyrimidine-4,6-diamine] and CCOc1cccc(S(=O)(=O)c2cnc(Nc3nc(C)nc(NCCN4CCCC4)c3F)s2)c1 [Example 12, N-[5-(3-Ethoxy-benzenesulfonyl)-thiazol-2-yl]-5-fluoro-2-methyl-N′-(2-pyrrolidin-1-yl-ethyl)-pyrimidine-4,6-diamine] fall in the same range of pIC50: 6.00 to 9.00 for the first, 6.00 to 9.00 for the second.

CCOc1cccc(S(=O)(=O)c2cnc(Nc3nc(C)nc(N(C)CCOC)c3F)s2)c1 [Example 13, N-[5-(3-ethoxy-benzenesulfonyl)-thiazol-2-yl]-5-fluoro-N′-(2-methoxy-ethyl)-2, N′-dimethyl-pyrimidine-4,6-diamine] and CCOc1cccc(S(=O)(=O)c2cnc(Nc3nc(C)nc(NCC(C)(C)N)c3F)s2)c1 [Example 14, N-(2-Amino-2-methyl-propyl)-N′-[5-(3-ethoxy-benzenesulfonyl)-thiazol-2-yl]-5-fluoro-2-methyl-pyrimidine-4,6-diamine] fall in the same range of pIC50: 6.00 to 9.00 for the first, 6.00 to 9.00 for the second.
